# Test results taken from PubChem BioAssay (NCI).
#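 Abbreviation: GI50, concentration required for 50% inhibition of growth. Definition used: TGI = concentration required for complete inhibition of growth.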
# Legend:
# Assay in all cases: growth of human tumour cells (NCI), 384-well format
# A498 renal = system: A498 renal
# NCI-H522 lung = system: NCI-H522 lung
# ACHN renal = system: ACHN renal
# SF-539 CNS = system: SF-539 CNS
# HL-60(TB) leukemia = system: HL-60(TB) leukemia
# NCI-H460 NSCLC = system: NCI-H460 NSCLC
# NCI-H23 lung = system: NCI-H23 lung
# MALME-3M melanoma = system: MALME-3M melanoma
# A549 NSCLC = system: A549 NSCLC
# SW-620 colon = system: SW-620 colon
# K-562 leukemia = system: K-562 leukemia
# MDA-MB-468 breast = system: MDA-MB-468 breast
# RPMI-8226 leukemia = system: RPMI-8226 leukemia
# RXF 393 renal = system: RXF 393 renal
# SNB-19 CNS = system: SNB-19 CNS
# NCI-H226 lung = system: NCI-H226 lung
# HCC-2998 colon = system: HCC-2998 colon
# SR leukemia = system: SR leukemia
# BT-549 breast = system: BT-549 breast
# MDA-MB-231 breast = system: MDA-MB-231 breast
# SK-OV-3 ovarian = system: SK-OV-3 ovarian
# EKVX NSCLC = system: EKVX NSCLC
# UO-31 renal = system: UO-31 renal
# CAKI-1 renal = system: CAKI-1 renal
# DU-145 prostate = system: DU-145 prostate
# M14 melanoma = system: M14 melanoma
# PC-3 prostate = system: PC-3 prostate
# MOLT-4 leukemia = system: MOLT-4 leukemia
# OVCAR-3 ovarian = system: OVCAR-3 ovarian
# TK-10 renal = system: TK-10 renal
# IGROV1 ovarian = system: IGROV1 ovarian
# HCT-15 colon = system: HCT-15 colon
# NCI/ADR-RES ovarian = system: NCI/ADR-RES ovarian
# HT29 colon = system: HT29 colon
# OVCAR-5 ovarian = system: OVCAR-5 ovarian
# CCRF-CEM leukemia = system: CCRF-CEM leukemia
# HOP-62 NSCLC = system: HOP-62 NSCLC
# SK-MEL-28 melanoma = system: SK-MEL-28 melanoma
# LOX IMVI melanoma = system: LOX IMVI melanoma
# SF-268 CNS = system: SF-268 CNS
# SN12C renal = system: SN12C renal
# 786-0 renal = system: 786-0 renal
# SNB-75 CNS = system: SNB-75 CNS
# T-47D breast = system: T-47D breast
# UACC-257 melanoma = system: UACC-257 melanoma
# HCT-116 colon = system: HCT-116 colon
# SK-MEL-5 melanoma = system: SK-MEL-5 melanoma
# NCI-H322M lung = system: NCI-H322M lung
# OVCAR-4 ovarian = system: OVCAR-4 ovarian
# U251 glioblastoma = system: U251 glioblastoma
# MCF7 breast = system: MCF7 breast
# HS 578T breast = system: HS 578T breast
# KM12 colon = system: KM12 colon
# SF-295 CNS = system: SF-295 CNS
# COLO 205 colon = system: COLO 205 colon
# HOP-92 NSCLC = system: HOP-92 NSCLC
# MDA-MB-435 melanoma = system: MDA-MB-435 melanoma
# OVCAR-8 ovarian = system: OVCAR-8 ovarian
structure (smiles),measurement,setting,value
O=C(Nc1cccc2cccnc12)c1ccc(N2C(=O)[C@@H]3[C@H](C2=O)[C@@H]2C=C[C@H]3C2)cc1,GI50,A498 renal,25.9 µM
same,TGI,A498 renal,> 100 µM
same,GI50,NCI-H522 lung,16.4 µM
same,TGI,NCI-H522 lung,32.8 µM
same,GI50,ACHN renal,45.1 µM
same,TGI,ACHN renal,> 100 µM
same,GI50,SF-539 CNS,49.1 µM
same,TGI,SF-539 CNS,> 100 µM
same,GI50,HL-60(TB) leukemia,12.3 µM
same,TGI,HL-60(TB) leukemia,24.9 µM
same,GI50,NCI-H460 NSCLC,20.5 µM
same,TGI,NCI-H460 NSCLC,43.5 µM
same,GI50,NCI-H23 lung,16.9 µM
same,TGI,NCI-H23 lung,42.6 µM
same,GI50,MALME-3M melanoma,27.3 µM
same,TGI,MALME-3M melanoma,88 µM
same,GI50,A549 NSCLC,32.2 µM
same,TGI,A549 NSCLC,> 100 µM
same,GI50,SW-620 colon,44.9 µM
same,TGI,SW-620 colon,> 100 µM
same,GI50,K-562 leukemia,11.6 µM
same,TGI,K-562 leukemia,25.9 µM
same,GI50,MDA-MB-468 breast,3.84 µM
same,TGI,MDA-MB-468 breast,23.6 µM
same,GI50,RPMI-8226 leukemia,21 µM
same,TGI,RPMI-8226 leukemia,36.5 µM
same,GI50,RXF 393 renal,0.907 µM
same,TGI,RXF 393 renal,24.6 µM
same,GI50,SNB-19 CNS,27.2 µM
same,TGI,SNB-19 CNS,> 100 µM
same,GI50,NCI-H226 lung,18 µM
same,TGI,NCI-H226 lung,50 µM
same,GI50,HCC-2998 colon,20.1 µM
same,TGI,HCC-2998 colon,41.6 µM
same,GI50,SR leukemia,13.5 µM
same,TGI,SR leukemia,32.9 µM
same,GI50,BT-549 breast,12.6 µM
same,TGI,BT-549 breast,30.5 µM
same,GI50,MDA-MB-231 breast,36.3 µM
same,TGI,MDA-MB-231 breast,> 100 µM
same,GI50,SK-OV-3 ovarian,57.2 µM
same,TGI,SK-OV-3 ovarian,> 100 µM
same,GI50,EKVX NSCLC,25.5 µM
same,TGI,EKVX NSCLC,> 100 µM
same,GI50,UO-31 renal,20.1 µM
same,TGI,UO-31 renal,> 100 µM
same,GI50,CAKI-1 renal,28.4 µM
same,TGI,CAKI-1 renal,> 100 µM
same,GI50,DU-145 prostate,26.2 µM
same,TGI,DU-145 prostate,> 100 µM
same,GI50,M14 melanoma,43.5 µM
same,TGI,M14 melanoma,> 100 µM
same,GI50,PC-3 prostate,26 µM
same,TGI,PC-3 prostate,70.4 µM
same,GI50,MOLT-4 leukemia,16 µM
same,TGI,MOLT-4 leukemia,29.8 µM
same,GI50,OVCAR-3 ovarian,25.3 µM
same,TGI,OVCAR-3 ovarian,> 100 µM
same,GI50,TK-10 renal,28.7 µM
same,TGI,TK-10 renal,> 100 µM
same,GI50,IGROV1 ovarian,32.5 µM
same,TGI,IGROV1 ovarian,> 100 µM
same,GI50,HCT-15 colon,26.1 µM
same,TGI,HCT-15 colon,98.2 µM
same,GI50,NCI/ADR-RES ovarian,12 µM
same,TGI,NCI/ADR-RES ovarian,26.7 µM
same,GI50,HT29 colon,14.4 µM
same,TGI,HT29 colon,29.8 µM
same,GI50,OVCAR-5 ovarian,56.8 µM
same,TGI,OVCAR-5 ovarian,> 100 µM
same,GI50,CCRF-CEM leukemia,16.8 µM
same,TGI,CCRF-CEM leukemia,42.3 µM
same,GI50,HOP-62 NSCLC,21.7 µM
same,TGI,HOP-62 NSCLC,74.7 µM
same,GI50,SK-MEL-28 melanoma,54.5 µM
same,TGI,SK-MEL-28 melanoma,> 100 µM
same,GI50,LOX IMVI melanoma,32.5 µM
same,TGI,LOX IMVI melanoma,89.6 µM
same,GI50,SF-268 CNS,41.2 µM
same,TGI,SF-268 CNS,> 100 µM
same,GI50,SN12C renal,47.8 µM
same,TGI,SN12C renal,> 100 µM
same,GI50,786-0 renal,21 µM
same,TGI,786-0 renal,59.9 µM
same,GI50,SNB-75 CNS,30 µM
same,TGI,SNB-75 CNS,98.5 µM
same,GI50,T-47D breast,13 µM
same,TGI,T-47D breast,27.1 µM
same,GI50,UACC-257 melanoma,36.2 µM
same,TGI,UACC-257 melanoma,> 100 µM
same,GI50,HCT-116 colon,38.3 µM
same,TGI,HCT-116 colon,> 100 µM
same,GI50,SK-MEL-5 melanoma,18.1 µM
same,TGI,SK-MEL-5 melanoma,32.7 µM
same,GI50,NCI-H322M lung,42 µM
same,TGI,NCI-H322M lung,> 100 µM
same,GI50,OVCAR-4 ovarian,21.6 µM
same,TGI,OVCAR-4 ovarian,> 100 µM
same,GI50,U251 glioblastoma,19.4 µM
same,TGI,U251 glioblastoma,> 100 µM
same,GI50,MCF7 breast,22.9 µM
same,TGI,MCF7 breast,> 100 µM
same,GI50,HS 578T breast,29.3 µM
same,TGI,HS 578T breast,93.7 µM
same,GI50,KM12 colon,32.3 µM
same,TGI,KM12 colon,> 100 µM
same,GI50,SF-295 CNS,17.7 µM
same,TGI,SF-295 CNS,57.4 µM
same,GI50,COLO 205 colon,37.6 µM
same,TGI,COLO 205 colon,> 100 µM
same,GI50,HOP-92 NSCLC,43.7 µM
same,TGI,HOP-92 NSCLC,> 100 µM
same,GI50,MDA-MB-435 melanoma,46.3 µM
same,TGI,MDA-MB-435 melanoma,> 100 µM
same,GI50,OVCAR-8 ovarian,27.8 µM
same,TGI,OVCAR-8 ovarian,94.6 µM
